#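 Test compounds were applied to cells in 96-well plates for 48 hours at 5 doses. The concentration for 50% growth inhibition is given as GI50. The concentration for full growth arrest is given as TGI.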
# Tests used:
# Experiment in all cases: NCI-60 cell line screen, 48 h
# [1] = system: OVCAR-4 ovarian
# [2] = system: UACC-62 melanoma
# [3] = system: RXF 393 renal
# [4] = system: SF-295 CNS
# [5] = system: SNB-19 CNS
# [6] = system: SF-268 CNS
# [7] = system: SK-MEL-2 melanoma
# [8] = system: HCT-116 colon
# [9] = system: 786-0 renal
# [10] = system: UO-31 renal
Structure (SMILES),TGI [1],TGI [2],TGI [3],TGI [4],TGI [5],TGI [6],TGI [7],TGI [8],TGI [9],TGI [10],GI50 [1],GI50 [2],GI50 [3],GI50 [4],GI50 [5],GI50 [6],GI50 [7],GI50 [8],GI50 [9],GI50 [10]
CC(C)N(C(=O)C12C3C4C1(I)C1C2C3(I)C41C(=O)N(C(C)C)C(C)C)C(C)C (configuration not stated),> 100 µM,> 100 µM,> 100 µM,> 100 µM,> 100 µM,> 100 µM,> 100 µM,> 100 µM,> 64.4 µM,> 100 µM,–,–,–,–,–,–,–,–,–,–
O=P1(c2ccccc2)CCCCC1,> 100 µM,> 100 µM,> 100 µM,> 100 µM,> 100 µM,–,> 100 µM,> 100 µM,> 100 µM,> 100 µM,–,–,–,–,–,–,–,–,–,–
CCN1C(=O)N(CC)C2C1NN=c1s/c(=C3\C(=O)N(CC(C)(C)C)c4ccccc43)c(=O)n12 (configuration not stated),66.6 µM,15.8 µM,12.8 µM,12.6 µM,16 µM,32.1 µM,33.1 µM,14.5 µM,27.8 µM,18.2 µM,7.77 µM,3.06 µM,1.83 µM,2.84 µM,4.05 µM,4.8 µM,11.3 µM,3.43 µM,5.65 µM,3.65 µM
Cc1nc2sc3c(c2c(=O)[nH]1)CCCC3,> 100 µM,> 100 µM,> 100 µM,> 100 µM,> 100 µM,> 100 µM,> 100 µM,> 100 µM,> 100 µM,68.2 µM,–,–,–,–,–,–,–,–,–,–
CC1COC(C)(C)P(=O)(c2ccccc2)C1 (configuration not stated),–,> 100 µM,> 100 µM,> 100 µM,> 100 µM,–,> 100 µM,> 100 µM,> 100 µM,> 100 µM,–,–,–,–,–,–,–,–,–,–
c1ccc2c(c1)c1c(c3ccccc32)CN2CCCC2C1 (configuration not stated),> 100 µM,12.8 µM,9.02 µM,> 35.5 µM,> 22.5 µM,13.2 µM,9.1 µM,14.7 µM,23.1 µM,11.8 µM,–,–,–,–,–,–,–,–,–,–
CC(=O)[O][Ga]([Br])[O]C(C)=O,> 100 µM,> 100 µM,> 100 µM,> 100 µM,> 100 µM,> 100 µM,> 100 µM,> 100 µM,> 100 µM,> 100 µM,> 100 µM,> 100 µM,> 100 µM,> 100 µM,> 100 µM,> 100 µM,> 100 µM,> 100 µM,> 100 µM,> 100 µM
O=S(=O)(Nc1ccc(F)cc1F)c1ccc(-c2cnc(C3CC3)o2)cc1,> 100 µM,23.3 µM,7.05 µM,5.53 µM,> 100 µM,> 70.4 µM,34.6 µM,> 64 µM,63 µM,34.2 µM,3.13 µM,0.358 µM,0.595 µM,0.359 µM,0.638 µM,4.82 µM,0.737 µM,0.421 µM,0.906 µM,1.07 µM
